In US5591741A, “Fungicidal spiroheterocyclic derivatives” (American Cyanamid Company, priority 1993, dated 1997):

Columns and labels:
Plasmopara viticola [1] = test: Antisporulant activity against vine downy mildew (PVA); format: in vivo; conditions: vine leaves, antisporulant foliar spray, 600 ppm, 750 l/ha
How it was run: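 Cabernet Sauvignon vines (~8 cm) inoculated on lower leaf surfaces with 5×10^4 zoosporangia/ml, held 24 h at 21° C high humidity then 24 h glasshouse. Infected leaves sprayed underside with 600 ppm compound in 1:1 water/acetone, 0.04% Tween 20, 750 l/ha; 96 h glasshouse, 24 h humidity. Sporulating leaf area rated versus control.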

Alternaria solani [2] = test: Activity against tomato early blight (AS); format: in vivo; conditions: Table VI; tomato seedlings, contact prophylactic foliar spray, 4 days
How it was run: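 Plants were challenged with A. solani conidia (10^4 spores/ml) 24 h after a protective foliar spray of compound in 50:50 acetone/water plus 0.04% Tween 20. Held humid at 21° C for 4 days, then percent leaf area with lesions was scored as a rating relative to controls.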

Botrytis cinerea [3] = test: Direct protectant activity against broad bean grey mould (BCB); format: in vivo; conditions: direct protectant foliar spray, 600 ppm, 4 days
How it was run: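 Protectant foliar test: lesion coverage assessed 4 days after inoculation and rated relative to untreated or diluent-sprayed plants. Compound applied at 600 ppm to cv The Sutton leaves 24 h before 10^6 conidia/ml suspension; incubation at 22 °C in high humidity.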

Leptosphaeria nodorum = test: Activity against wheat leafspot (LN); format: in vivo; conditions: direct therapeutic foliar spray, 600 ppm, 6-8 days
How it was run: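 Therapeutic foliar spray: compound at 600 ppm applied to single-leaf wheat (cv Norman) 24 h after inoculation with 1.5×10^6 conidia/ml. Disease control scored after 6-8 days at 22° C and 70% humidity as lesions per leaf versus untreated or diluent-sprayed controls.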

[4] = test system: Erysiphe graminis f.sp. hordei; test: Activity against barley powdery mildew, direct therapeutic (EGT); format: in vivo; conditions: direct therapeutic foliar spray, 600 ppm, up to 7 days
How it was run: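 A curative spray at 600 ppm was applied to single-leaf Golden Promise barley inoculated with powdery mildew conidia the previous day. After up to 7 days at 18 °C and 40% humidity, disease control was rated from percent leaf area sporulating relative to untreated or diluent-sprayed controls.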

[5] = test system: Erysiphe graminis f.sp. hordei; test: Direct protectant activity against barley powdery mildew (EGP); format: in vivo; conditions: direct protectant foliar spray, 8 days
How it was run: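 Rating reflects percentage of leaf area with sporulation compared with untreated or diluent-sprayed controls. Protectant spray was applied to single-leaf barley (cv Golden Promise) 24 h before conidia inoculation. Plants were kept at 18 °C and 40% RH throughout, with 8 days of disease development.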

Phytophthora infestans = format: in vivo; conditions: tomato, direct protectant foliar spray
[6] = test system: Pseudocercosporella herpotrichoides; test: Activity against wheat eyespot in-vitro (PHI); format: cell-based; conditions: 10 ppm, 10 days, 20° C., mycelial growth
How it was run: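 Mycelial growth was scored after 10 days at 20 °C against untreated or diluent controls. The broth was half-strength potato dextrose, holding 10 ppm test compound (from acetone) and 5×10^4 fragments/ml of the eyespot fungus.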

Rhizoctonia solani = test: Activity against Rhizoctonia in-vitro (RSI); format: cell-based; conditions: 10 ppm, 10 days, 20° C., mycelial growth
How it was run: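 Compound at a final 10 ppm (acetone vehicle) in half-strength PDB, inoculated with 5×10^4 fragments/ml of shaken-culture R. solani mycelium. After incubation at 20° C for 10 days, growth scored as a rating versus untreated or diluent-treated controls.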

Venturia inaequalis = test: Activity against apple scab in-vitro (VII); format: cell-based; conditions: 10 ppm, 10 days, 20° C., mycelial growth
How it was run: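 V. inaequalis propagules (5×10^4/ml, malt agar-grown) were exposed in half-strength PDB to 10 ppm final test compound delivered in acetone. Growth was scored after incubation for 10 days at 20° C, as a rating relative to untreated or diluent-sprayed controls.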

Pyricularia oryzae [7] = format: in vivo; conditions: rice seedlings, direct therapeutic foliar spray, 600 ppm, 4-5 days
Venturis inaequalis = test: In vivo fungicidal activity, Apple Scab (AS); conditions: Table VIa; host plants sprayed; solution of 400 ppm and dilutions
Plasmopara viticola [8] = test: In vivo fungicidal activity, Grape Downy Mildew (GDM); conditions: Table VIa; host plants sprayed; solution of 400 ppm and dilutions; further: ranges in brackets are in %
Botrytis cinerea [9] = test: In vivo fungicidal activity, Pepper Botrytis (PB); conditions: Table VIa; host plants sprayed; solution of 400 ppm and dilutions; further: ranges in brackets are in %
Pyricularia oryzae [10] = format: in vivo; conditions: Table VIa; host plants sprayed; solution of 400 ppm and dilutions
Cercospora beticola = test: In vivo fungicidal activity, Sugar Beet Cercospora (SBC); conditions: Table VIa; host plants sprayed; solution of 400 ppm and dilutions; further: ranges in brackets are in %
Alternaria solani [11] = test: In vivo fungicidal activity, Tomato Early Blight (TEB); conditions: Table VIa; host plants sprayed; solution of 400 ppm and dilutions; further: ranges in brackets are in %
[12] = test system: Erysiphe graminis f. sp. tritici; test: In vivo fungicidal activity, Wheat Powdery Mildew (WPM); conditions: Table VIa; host plants sprayed; solution of 400 ppm and dilutions
Septoria nodorum = test: In vivo fungicidal activity, Wheat Blotch (WSN); conditions: Table VIa; host plants sprayed; solution of 400 ppm and dilutions
Procedure: Test compounds are dissolved in acetone and diluted with deionized water containing about 0.05% TWEEN 20®, a polyoxyethylene sorbitan monolaurate surfactant manufactured by Atlas Chemical Industries, to give a concentration of 400 ppm. Subsequent dilutions are made with an 0.05% aqueous solution of TWEEN 20®.
Host plants are sprayed with test solution, dried and inoculated with fungi. When disease symptom development is optimal, the plants are rated for disease control according to the rating scale shown below. Each test contains inoculated treated plants, inoculated untreated plants and a reference standard. When more than one test is run, the data are averaged.

Compound	disease control rating PVA (Plasmopara viticola [1])	disease control rating AS (Alternaria solani [2])	disease control rating BCB (Botrytis cinerea [3])	disease control rating LN (Leptosphaeria nodorum)	disease control rating EGT [4]	disease control rating EGP [5]	disease control rating PIP (Phytophthora infestans)	disease control rating PHI [6]	disease control rating RSI (Rhizoctonia solani)	disease control rating VII (Venturia inaequalis)	disease control rating PO (Pyricularia oryzae [7])	disease control rating AS (Apple Scab) (Venturis inaequalis)	disease control rating GDM (Plasmopara viticola [8])	disease control rating PB (Botrytis cinerea [9])	disease control rating RB (Pyricularia oryzae [10])	disease control rating SBC (Cercospora beticola)	disease control rating TEB (Alternaria solani [11])	disease control rating WPM [12]	disease control rating WSN (Septoria nodorum)
CC(C)(C)C1CCC2(CC1)CC(CNC1CCCCC1)CO2 (stereo not drawn) [Compound 185]	0 (less than 50% disease control)	1 (about 50-80% disease control)	1 (about 50-80% disease control)	0 (less than 50% disease control)	2 (greater than 80% disease control)	2 (greater than 80% disease control)	0 (less than 50% disease control)	0 (less than 50% disease control)	0 (less than 50% disease control)	0 (less than 50% disease control)	0 (less than 50% disease control)	–	–	–	–	–	–	–	–
CC(C)CN(CC(C)C)CC1COC2(CCC(C(C)(C)C)CC2)C1 (stereo not drawn) [Compound 186]	0 (less than 50% disease control)	0 (less than 50% disease control)	0 (less than 50% disease control)	0 (less than 50% disease control)	0 (less than 50% disease control)	2 (greater than 80% disease control)	0 (less than 50% disease control)	0 (less than 50% disease control)	0 (less than 50% disease control)	0 (less than 50% disease control)	0 (less than 50% disease control)	–	–	–	–	–	–	–	–
CN(CC1COC2(CCC(C(C)(C)C)CC2)C1)C1CCCCC1 (stereo not drawn) [Compound 187]	–	–	–	–	–	–	–	–	–	–	–	4 (45-59)	5 (60-74)	7 (90-95)	0 (0)	5 (60-74)	6 (75-89)	9 (100)	7 (90-95)
CCN(CC1COC2(CCC(C(C)(C)C)CC2)C1)C1CCCCC1 (stereo not drawn) [Compound 188]	–	–	–	–	–	–	–	–	–	–	–	5 (60-74)	0 (0)	5 (60-74)	0 (0)	4 (45-59)	0 (0)	8 (96-99)	6 (75-89)
CC(C)(C)C1CCC2(CC1)CC(CCNC1CCCCC1)CO2 (stereo not drawn) [Compound 189, 8-t-Butyl-3-cyclohexylaminoethyl-1-oxaspiro(4,5)decane]	0 (less than 50% disease control)	0 (less than 50% disease control)	0 (less than 50% disease control)	0 (less than 50% disease control)	2 (greater than 80% disease control)	2 (greater than 80% disease control)	1 (about 50-80% disease control)	0 (less than 50% disease control)	0 (less than 50% disease control)	1 (about 50-80% disease control)	0 (less than 50% disease control)	–	–	–	–	–	–	–	–
CC(C)(C)C1CCC2(CC1)CC(CCN)CO2.Cl (stereo not drawn) [Compound 190, 8-t-butyl-3-aminoethyl-1-oxaspiro(4,5)decane hydrochloride]	1 (about 50-80% disease control)	0 (less than 50% disease control)	0 (less than 50% disease control)	0 (less than 50% disease control)	0 (less than 50% disease control)	1 (about 50-80% disease control)	2 (greater than 80% disease control)	0 (less than 50% disease control)	0 (less than 50% disease control)	0 (less than 50% disease control)	0 (less than 50% disease control)	–	–	–	–	–	–	–	–
CN(C)CCC1COC2(CCC(C(C)(C)C)CC2)C1 (stereo not drawn) [Compound 191]	0 (less than 50% disease control)	0 (less than 50% disease control)	0 (less than 50% disease control)	0 (less than 50% disease control)	0 (less than 50% disease control)	2 (greater than 80% disease control)	0 (less than 50% disease control)	0 (less than 50% disease control)	0 (less than 50% disease control)	0 (less than 50% disease control)	0 (less than 50% disease control)	–	–	–	–	–	–	–	–
CC1CCCC(NCCC2COC3(CCC(C(C)(C)C)CC3)C2)C1 (stereo not drawn) [Compound 192]	–	–	–	–	–	–	–	–	–	–	–	7 (90-95)	6 (75-89)	8 (96-99)	0 (0)	7 (90-95)	4 (45-59)	7 (90-95)	7 (90-95)
CCCC(CCC)NCCC1COC2(CCC(C(C)(C)C)CC2)C1 (stereo not drawn) [Compound 193]	–	–	–	–	–	–	–	–	–	–	–	6 (75-89)	8 (96-99)	7 (90-95)	0 (0)	6 (75-89)	2 (15-29)	8 (96-99)	3 (30-44)
